Read-outs that look alike come from different tables or passages of the source.
What was measured:
[1] = target: T1, μOR (Homo sapiens, UniProt P35372); experiment: β-arrestin recruitment at μOR without GRK2; format: cell-based
[2] = target: hMOR (Homo sapiens, UniProt P35372); experiment: Receptor binding with [3H]diprenorphine at hMOR
[3] = target: hKOR (Homo sapiens, UniProt P41145); experiment: Receptor binding with [3H]diprenorphine at hKOR
[4] = target: T1, μOR; experiment: β-arrestin recruitment at μOR with GRK2 co-expression; format: cell-based; settings: for EC50: read-out: Arrestin + GRK2 EC50
[5] = target: humanDOR (Homo sapiens, UniProt P41143); experiment: Receptor binding with [3H]diprenorphine at human DOR
[6] = target: T1, μOR; experiment: cell-based; format: cell-based
[7] = target: T2, MM1 (MOR N127C) (Homo sapiens, UniProt P35372, N129C); experiment: Receptor binding at MM1 (MOR N127C)
T2 construct: expressed in transfected cells; host or cells: HEK 293

[8] = target: T3, κOR (Homo sapiens, UniProt P41145); experiment: Radioligand binding at κOR (PDSP); settings: for κOR Ki, given as percentage: <50% instead of a Ki; for Ki: analogs, full dose-response
T3 construct: NIMH Psychoactive Drug Screening Program (PDSP)

[9] = target: T1, μOR; experiment: biochemical; format: binding; parameters: expressed in transfected cells; host or cells: HEK293 membranes (Ki); Sf9 insect cell membranes (single-point screen); PDSP for analogs
Description: For a primary screen of selected molecules, binding to OR was assessed by measuring competition against the radioligand ^3H-diprenorphine (^3H-DPN). […] The reaction contained 40 fmol of μOR and was incubated in a buffer of 20 mM HEPES pH 7.5, 100 mM sodium chloride, and 0.1% bovine serum albumin for 1 hour at 25° C. To separate free from bound radioligand, reactions were rapidly filtered over Whatman GF/B filters with the aid of a Brandel harvester and ^3H-DPN counts were measured by liquid scintillation.

[10] = ± SD (two experiments) or SEM, (n) experiments, read-out: hMOR [3H]dyprenorphine Ki
[11] = ± SD (two experiments) or SEM, (n) experiments, read-out: hKOR [3H]dyprenorphine Ki
[12] = ± SD (two experiments) or SEM, (n) experiments, read-out: humanDOR [3H]dyprenorphine Ki
[13] = (n) = number of independent experiments, read-out: binding affinity Ki MM1 (MOR N127C)
[14] = PZM analogs, (n) = number of independent experiments, read-out: binding affinity Ki hMOR
[15] = PZM analogs, (n) = number of independent experiments, read-out: binding affinity Ki hKOR
[16] = PZM analogs, (n) = number of independent experiments, read-out: binding affinity Ki hDOR
[17] = μOR Gi EC50 (μM), ND = not detectable under these experimental conditions
[18] = analogs, full dose-response, read-out: μOR Ki
[19] = molecules identified in the initial screen, read-out: μOR Ki

T2 sequence (P35372 whole entry N129C): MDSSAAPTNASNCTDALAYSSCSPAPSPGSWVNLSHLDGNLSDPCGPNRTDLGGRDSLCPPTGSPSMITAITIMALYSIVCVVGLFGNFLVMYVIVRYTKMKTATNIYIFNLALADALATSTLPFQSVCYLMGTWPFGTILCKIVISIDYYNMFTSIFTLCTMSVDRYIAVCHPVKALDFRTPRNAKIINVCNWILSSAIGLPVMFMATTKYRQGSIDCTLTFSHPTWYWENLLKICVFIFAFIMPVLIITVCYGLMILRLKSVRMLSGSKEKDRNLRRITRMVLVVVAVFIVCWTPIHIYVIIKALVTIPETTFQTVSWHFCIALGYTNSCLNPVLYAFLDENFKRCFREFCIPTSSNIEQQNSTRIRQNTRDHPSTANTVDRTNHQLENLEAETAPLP
Sequence of humanDOR (P41143 whole entry): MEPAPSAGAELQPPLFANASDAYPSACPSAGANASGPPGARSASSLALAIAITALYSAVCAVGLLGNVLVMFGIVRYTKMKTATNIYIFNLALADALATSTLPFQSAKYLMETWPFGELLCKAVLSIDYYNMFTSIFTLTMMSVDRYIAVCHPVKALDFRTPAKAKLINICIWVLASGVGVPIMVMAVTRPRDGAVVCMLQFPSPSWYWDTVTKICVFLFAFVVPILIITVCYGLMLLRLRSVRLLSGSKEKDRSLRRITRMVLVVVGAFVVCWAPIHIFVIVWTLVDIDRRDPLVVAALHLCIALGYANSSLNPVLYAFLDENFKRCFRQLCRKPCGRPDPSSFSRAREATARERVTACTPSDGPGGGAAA
T1 sequence (P35372 whole entry): as the sequence (P35372 whole entry N129C) above, with C129N counted along it
Sequence of hMOR (P35372 whole entry): as the sequence (P35372 whole entry N129C) above, with C129N counted along it
T3 sequence (P41145 whole entry): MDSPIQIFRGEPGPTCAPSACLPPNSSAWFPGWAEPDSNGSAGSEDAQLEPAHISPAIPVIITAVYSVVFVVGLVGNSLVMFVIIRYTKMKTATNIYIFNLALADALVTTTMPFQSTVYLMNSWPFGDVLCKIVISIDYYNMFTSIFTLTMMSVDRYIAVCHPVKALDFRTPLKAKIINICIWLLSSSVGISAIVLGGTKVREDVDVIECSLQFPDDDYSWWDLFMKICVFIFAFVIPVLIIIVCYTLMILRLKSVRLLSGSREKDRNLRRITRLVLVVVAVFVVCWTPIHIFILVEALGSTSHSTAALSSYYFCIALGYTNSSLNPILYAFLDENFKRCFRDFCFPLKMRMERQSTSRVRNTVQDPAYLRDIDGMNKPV
Sequence of hKOR (P41145 whole entry): as above

SMILES: CN(C)[C@H](CNC(=O)NC(C)(C)Cc1ccsc1)Cc1ccc(O)cc1 [DD 32L, (S)-1-(2-(dimethylamino)-3-(4-hydroxyphenyl)propyl)-3-(2-methyl-1-(thiophen-3-yl)propan-2-yl)urea]
- Arrestin Emax % DAMGO [1]: 3 % DAMGO
- EC50 ([1]; read-out: Arrestin EC50): 5.23 nM
- Ki [2, 10]: 38 nM
- Ki [3, 11]: 46 nM
- Arrestin + GRK2 Emax % DAMGO [4]: 24 % DAMGO
- EC50 [4]: 49.4 nM
- Ki [5, 12]: 650 nM
- Gi/o Emax % DAMGO [6]: 52 % DAMGO
- EC50 ([6]; Gi/o EC50 nM): 23.5 nM

SMILES: C[C@@H](Cc1ccccc1)NC(=O)NC[C@H](Cc1ccc(O)cc1)N(C)C [DD 61L-B, 1-((S)-2-(dimethylamino)-3-(4-hydroxyphenyl)propyl)-3-((S)-1-phenylpropan-2-yl)urea]
- Arrestin Emax % DAMGO [1]: 12 % DAMGO
- EC50 ([1]; read-out: Arrestin EC50): 84.1 nM
- Ki [2, 10]: 42 nM
- Ki [3, 11]: 37 nM
- Arrestin + GRK2 Emax % DAMGO [4]: 79 % DAMGO
- EC50 [4]: 278 nM
- Ki [5, 12]: 360 nM
- Gi/o Emax % DAMGO [6]: 84 % DAMGO
- EC50 ([6]; Gi/o EC50 nM): 35.5 nM

SMILES: CN(C)[C@H](CNC(=O)NCCc1cn(CCSSCCN=[N+]=[N-])nn1)Cc1ccc(O)cc1 [drawing 545]
- Ki [7, 13]: 34 nM
- Ki [2, 14]: 420 nM
- Ki [3, 15]: 1500 nM
- Ki [5, 16]: 3900 nM

SMILES: CN(C)[C@H](CNC(=O)NCCc1ccsc1)Cc1ccc(O)cc1 [DD 16, (S)-1-(2-(dimethylamino)-3-(4-hydroxyphenyl)propyl)-3-(2-(thiophen-3-yl)ethyl)urea]
- Arrestin Emax % DAMGO [1]: 5 % DAMGO
- EC50 ([1]; read-out: Arrestin pEC50 (converted)): 410 nM
- Ki [2, 10]: 43 nM
- Ki [3, 11]: 150 nM
- Arrestin + GRK2 Emax % DAMGO [4]: 33 % DAMGO
- EC50 [4]: 144 nM
- Ki [5, 12]: 330 nM
- Gi/o Emax % DAMGO [6]: 60 % DAMGO
- EC50 ([6]; Gi/o EC50 nM): 7.55 nM

SMILES: C[C@@H](Cc1ccsc1)NC(=O)NC[C@H](Cc1ccc(O)nc1)N(C)C
- Ki [7, 13]: 3800 nM
- Ki [2, 14]: 4600 nM
- Ki [3, 15]: 12000 nM
- Ki [5, 16]: > 20000 nM

SMILES: CN(C)[C@H](CNC(=O)NCCN1C(=O)C=CC1=O)Cc1ccc(O)cc1
- Ki [7, 13]: 3.7 nM
- Ki [2, 14]: 240 nM
- Ki [3, 15]: 600 nM
- Ki [5, 16]: 450 nM

SMILES: Cc1nc(CNC(=O)NC[C@@H](Cc2ccccc2)N(C)C)sc1C [compound 15]
- κOR Ki, given as percentage [8]: <50%
- Ki [9]: 130 nM

SMILES: COc1nc(C)cc(C)c1CNC(=O)NC[C@@H](Cc1ccccc1)N(C)C [compound 13]
- Ki ([8]; κOR Ki (μM)): 1.02 µM
- Ki [9]: 550 nM
- EC50 [6, 17]: 3100 nM

SMILES: CC(C)[C@H](CNC(=O)c1ccc([N+](=O)[O-])s1)N1CCc2ccccc2C1 [compound 8]
- Ki ([8]; read-out: κOR Ki): 0.46 µM
- Ki [9, 18]: 820 nM
- EC50 ([6]; ND = not detectable under these experimental conditions, read-out: μOR Gi EC50): 6600 nM

SMILES: C[C@H](NC(=O)NC[C@H](Cc1ccc(O)cc1)N(C)C)c1ccccc1 [DD 53LS, 1-((S)-2-(dimethylamino)-3-(4-hydroxyphenyl)propyl)-3-((S)-1-phenylethyl)urea]
- Arrestin Emax % DAMGO [1]: 5 % DAMGO
- EC50 ([1]; read-out: Arrestin EC50): 67.9 nM
- Ki [2, 10]: 28 nM
- Ki [3, 11]: 22 nM
- Arrestin + GRK2 Emax % DAMGO [4]: 33 % DAMGO
- EC50 [4]: 87.4 nM
- Ki [5, 12]: 180 nM
- Gi/o Emax % DAMGO [6]: 63 % DAMGO
- EC50 ([6]; Gi/o EC50 nM): 3.08 nM

SMILES: CN(Cc1nnc(C2CC2)n1C)C(=O)NC[C@@H](Cc1ccccc1)N(C)C [compound 10]
- κOR Ki, given as percentage [8]: <50%
- Ki [9]: 4750 nM

SMILES: CN(C)[C@H](CNC(=O)NCCc1c[nH]nn1)Cc1ccc(O)cc1
- Ki [7]: 630 nM
- Ki [2]: 960 nM
- Ki [3]: 1400 nM
- Ki [5]: 4700 nM

SMILES: Cc1ccc2[nH]c(=O)c(CN3CCN[C@@H](c4ccccc4)C3)cc2c1 [compound 5]
- Ki [9, 19]: 4700 nM

SMILES: CN(C)[C@H](CNC(=O)Cc1ccc([N+](=O)[O-])s1)Cc1ccccc1 [compound 4]
- Ki [9]: 2300 nM

SMILES: CN(C)[C@H](CNC(=O)NCCCCN1C(=O)C=CC1=O)Cc1ccc(O)cc1
- Ki [7, 13]: 5.9 nM
- Ki [2, 14]: 1000 nM
- Ki [3, 15]: 760 nM
- Ki [5, 16]: 4900 nM

SMILES: CN(C)[C@@H](CNC(=O)NC[C@@H](O)c1cnn(C)c1)Cc1ccccc1 [compound 11]
- κOR Ki, given as percentage [8]: <50%
- Ki [9, 18]: 1860 nM

SMILES: CN(C)[C@H](CNC(=O)NCc1cccc([N+](=O)[O-])c1)Cc1ccccc1 [compound 14]
- Ki ([8]; κOR Ki (μM)): 0.51 µM
- Ki [9]: 87 nM
- EC50 [6, 17]: 440 nM

SMILES: C[C@@H](CN1C(=O)C=CC1=O)NC(=O)NC[C@H](Cc1ccc(O)cc1)N(C)C
- Ki [7, 13]: 5.6 nM
- Ki [2, 14]: 410 nM
- Ki [3, 15]: 1200 nM
- Ki [5, 16]: 860 nM

SMILES: CN(C)[C@H](CNC(=O)NC1Cc2ccccc2C1)Cc1ccc(O)cc1 [DD 57L, (S)-1-(2,3-dihydro-1H-inden-2-yl)-3-(2-(dimethylamino)-3-(4-hydroxyphenyl)propyl)urea]
- Arrestin EC50 nM [1]: No Activity
- Arrestin Emax % DAMGO [1]: No Activity
- Ki [2, 10]: 8.3 nM
- Ki [3, 11]: 40 nM
- Arrestin + GRK2 EC50 nM [4]: No Activity
- Arrestin + GRK2 Emax % DAMGO [4]: No Activity
- Ki [5, 12]: 74 nM
- Gi/o EC50 nM [6]: No Activity
- Gi/o Emax % DAMGO [6]: No Activity

SMILES: Cc1cc(O)cc(C)c1C[C@@H](CNC(=O)NCCN1C(=O)C=CC1=O)N(C)C
- Ki [7, 13]: 0.93 nM
- Ki [2, 14]: 18 nM
- Ki [3, 15]: 200 nM
- Ki [5, 16]: 150 nM

SMILES: CN(C)[C@H](CNC(=O)NCCCN1C(=O)C=CC1=O)Cc1ccc(O)cc1
- Ki [7, 13]: 4.7 nM
- Ki [2, 14]: 380 nM
- Ki [3, 15]: 450 nM
- Ki [5, 16]: 3100 nM

SMILES: CN(C)[C@H](CNC(=O)NC(C)(C)Cc1ccccc1)Cc1ccc(O)cc1 [DD 33L, (S)-1-(2-(dimethylamino)-3-(4-hydroxyphenyl)propyl)-3-(2-methyl-1-phenylpropan-2-yl)urea]
- Arrestin EC50 nM [1]: No Activity
- Arrestin Emax % DAMGO [1]: No Activity
- Ki [2, 10]: 46 nM
- Ki [3, 11]: 91 nM
- Arrestin + GRK2 Emax % DAMGO [4]: 14 % DAMGO
- EC50 [4]: 134 nM
- Ki [5, 12]: 920 nM
- Gi/o Emax % DAMGO [6]: 61 % DAMGO
- EC50 ([6]; Gi/o EC50 nM): 98.1 nM
- EC50 ([6]; Gi/o pEC50): 98.2 nM

SMILES: O=C(Cc1cn2ccccc2n1)NCC1(c2ccccc2)CCC1 [compound 9]
- Ki ([8]; κOR Ki (μM)): 1.36 µM
- μOR Ki column, given as percentage ([9]; <50% instead of a Ki): <50%

SMILES: CN(C)[C@H](CNC(=O)Cc1cn2ccccc2n1)Cc1ccccc1 [compound 2]
- Ki [9, 19]: 5800 nM

SMILES: C[C@H](CN1C(=O)C=CC1=O)NC(=O)NC[C@H](Cc1ccc(O)cc1)N(C)C
- Ki [7, 13]: 0.13 nM
- Ki [2, 14]: 90 nM
- Ki [3, 15]: 690 nM
- Ki [5, 16]: 210 nM

SMILES: Cc1cccc(NC2CCN(C(=O)Nc3ccc(F)cc3F)CC2)n1 [compound 3]
- Ki [9, 19]: 13800 nM
